Reference: patent US20070015823A1, “Ambruticin VS compounds” (priority 2004, published 2007)
Converted amounts (≈) assume the structure as drawn.

Experiments:
[1] = test system: Trichophyton rubrum; assay: Dermatophyte broth microdilution, NCCLS M38-A; type: cell-based
[2] = test system: A. flavus ATCC 204304; assay: Broth microdilution antifungal susceptibility, NCCLS M38-A; type: cell-based, Aspergillus flavus; conditions: minimal concentration inhibiting >95% growth; average of at least two assays (except I-l and I-x)
[3] = test system: Candida albicans; conditions: 50% growth inhibition, range = minimum and maximum of multiple assays; for MIC C. albicans 24433: strain 24433; for MIC C. albicans 90028: strain 90028
[4] = test system: S. apiospermum; assay: Broth microdilution antifungal susceptibility, NCCLS M38-A; type: cell-based, Scedosporium apiospermum
[5] = test system: Cryptococcus neoformans; assay: as above; conditions: 50% growth inhibition, range = minimum and maximum of multiple assays; for MIC C. neoformans 97-14: strain 97-14; for MIC C. neoformans 11239: strain 11239; for MIC C. neoformans 11240: strain 11240
[6] = test system: Epidermophyton floccosum; assay: Dermatophyte broth microdilution, NCCLS M38-A; type: cell-based
[7] = test system: Fusarium solani; assay: Broth microdilution antifungal susceptibility, NCCLS M38-A; type: cell-based; conditions: strain 96-1; 50% growth inhibition; range = minimum and maximum of multiple assays
[8] = test system: Blastomyces dermatitidis; assay: as above; type: cell-based
[9] = test system: Trichophyton interdigitale; assay: Dermatophyte broth microdilution, NCCLS M38-A; type: cell-based
[10] = test system: Microsporum canis; assay: Dermatophyte broth microdilution, NCCLS M38-A; type: cell-based
[11] = test system: Trichophyton mentagrophytes; assay: Dermatophyte broth microdilution, NCCLS M38-A; type: cell-based
[12] = test system: A. fumigatus ATCC 204305; assay: Broth microdilution antifungal susceptibility, NCCLS M38-A; type: cell-based, Aspergillus fumigatus; conditions: minimal concentration inhibiting >95% growth; average of at least two assays (except I-l and I-x)
[13] = test system: Histoplasma capsulatum; type: cell-based
[14] = test system: Microsporum gypseum; assay: Dermatophyte broth microdilution, NCCLS M38-A; type: cell-based

**Q.** How did the “MIC0 Tr” value [1] turn out when `CC[C@H]1O[C@@H](/C(C)=C/[C@H](C)/C=C/[C@H]2[C@@H](C)[C@@H]2/C=C/[C@@H]2O[C@H](CC(=O)O)C[C@H](N(C)CCO)[C@H]2O)CC=C1C` [I-n, (5S,6R)-5-(N-(2-hydroxyethyl)-methylamino)-6-hydroxypolyangioic acid] was run?
**A.** 2.51 µg/mL

**Q.** What about the “MIC0 A. flavus ATCC 204304” value [2] of the same compound?
**A.** 2 µg/mL

**Q.** What about the “MIC C. albicans 24433” value [3] of the same compound?
**A.** >32 µg/mL

**Q.** And the “MIC C. albicans 90028” value [3]?
**A.** >32 µg/mL

**Q.** And the “MIC S. apiospermum 94-54” value [4]?
**A.** >16 µg/mL

**Q.** And the “MIC S. apiospermum 98-38” value [4]?
**A.** >16 µg/mL

**Q.** And the “MIC S. apiospermum 98-89” value [4]?
**A.** 0.125 to 0.25 µg/mL

**Q.** And the “MIC C. neoformans 97-14” value [5]?
**A.** 0.25 µg/mL (≈ 0.47 µM)

**Q.** What about the “MIC C. neoformans 11239” value [5] of the same compound?
**A.** 0.125 to 0.25 µg/mL

**Q.** What about the “MIC C. neoformans 11240” value [5] of the same compound?
**A.** 0.125 to 0.25 µg/mL

**Q.** And the “MIC0 Ef” value [6]?
**A.** 2 µg/mL

**Q.** And the “MIC F. solani 96-1” value [7]?
**A.** >16 µg/mL

**Q.** What about the “MIC B. dermatitidis Gu” value [8] of the same compound?
**A.** 6.25 µg/mL (≈ 11.8 µM)

**Q.** What about the “MIC B. dermatitidis Kr” value [8] of the same compound?
**A.** >12.5 µg/mL

**Q.** And the “MIC B. dermatitidis V” value [8]?
**A.** >12.5 µg/mL

**Q.** And the “MIC0 Ti” value [9]?
**A.** 1.25 µg/mL

**Q.** And the “MIC0 Mc” value [10]?
**A.** 2.82 µg/mL

**Q.** And the “MIC0 Tm” value [11]?
**A.** 8 µg/mL

**Q.** And the “MIC0 A. fumigatus ATCC 204305” value [12]?
**A.** 1.4 µg/mL

**Q.** What about the “MIC H. capsulatum G217B” value [13] of the same compound?
**A.** <0.19 µg/mL

**Q.** And the “MIC H. capsulatum GS20” value [13]?
**A.** <0.19 µg/mL

**Q.** What about the “MIC0 Mg” value [14] of the same compound?
**A.** 1.99 µg/mL

**Q.** With `CC[C@H]1O[C@@H](/C(C)=C/[C@H](C)/C=C/[C@H]2[C@@H](C)[C@@H]2/C=C/[C@@H]2O[C@H](CC(=O)O)C[C@H](N(C)Cc3cccnc3)[C@H]2O)CC=C1C` [I-w, (5S,6R)-5-(N-(3-pyridyl)methyl-methylamino)-6-hydroxypolyangioic acid] as the compound, how does the “MIC0 A. flavus ATCC 204304” value [2] read?
**A.** 4 µg/mL

**Q.** And the “MIC C. albicans 24433” value [3]?
**A.** >32 µg/mL

**Q.** What about the “MIC C. albicans 90028” value [3] of the same compound?
**A.** >32 µg/mL

**Q.** And the “MIC S. apiospermum 94-54” value [4]?
**A.** >16 µg/mL

**Q.** What about the “MIC S. apiospermum 98-38” value [4] of the same compound?
**A.** >16 µg/mL

**Q.** And the “MIC S. apiospermum 98-89” value [4]?
**A.** 2 µg/mL (≈ 3.46 µM)

**Q.** What about the “MIC C. neoformans 97-14” value [5] of the same compound?
**A.** 1 µg/mL (≈ 1.73 µM)

**Q.** What about the “MIC C. neoformans 11239” value [5] of the same compound?
**A.** 0.5 µg/mL (≈ 0.864 µM)

**Q.** And the “MIC C. neoformans 11240” value [5]?
**A.** 0.5 to 1 µg/mL

**Q.** What about the “MIC F. solani 96-1” value [7] of the same compound?
**A.** >16 µg/mL

**Q.** What about the “MIC0 A. fumigatus ATCC 204305” value [12] of the same compound?
**A.** 4.25 µg/mL

**Q.** Which “MIC0 Tr” value [1] does the source give for `CC[C@H]1O[C@@H](/C(C)=C/[C@H](C)/C=C/[C@H]2[C@@H](C)[C@@H]2/C=C/[C@@H]2O[C@H](CC(=O)O)C[C@H](N(CC)CC)[C@H]2O)CC=C1C` [I-z, (5S,6R)-5-(diethylamino)-6-hydroxypolyangioic acid] here?
**A.** 1.25 µg/mL

**Q.** What about the “MIC0 A. flavus ATCC 204304” value [2] of the same compound?
**A.** 2.2 µg/mL

**Q.** And the “MIC C. albicans 24433” value [3]?
**A.** >32 µg/mL

**Q.** What about the “MIC C. albicans 90028” value [3] of the same compound?
**A.** >32 µg/mL

**Q.** What about the “MIC S. apiospermum 94-54” value [4] of the same compound?
**A.** >16 µg/mL

**Q.** What about the “MIC S. apiospermum 98-38” value [4] of the same compound?
**A.** >16 µg/mL

**Q.** And the “MIC S. apiospermum 98-89” value [4]?
**A.** 0.25 to 0.5 µg/mL

**Q.** And the “MIC C. neoformans 97-14” value [5]?
**A.** 0.5 to 1 µg/mL

**Q.** And the “MIC C. neoformans 11239” value [5]?
**A.** 0.25 to 0.5 µg/mL

**Q.** And the “MIC C. neoformans 11240” value [5]?
**A.** 0.5 µg/mL (≈ 0.944 µM)

**Q.** And the “MIC0 Ef” value [6]?
**A.** 4 µg/mL

**Q.** What about the “MIC F. solani 96-1” value [7] of the same compound?
**A.** >16 µg/mL

**Q.** What about the “MIC B. dermatitidis Gu” value [8] of the same compound?
**A.** >12.5 µg/mL

**Q.** What about the “MIC B. dermatitidis Kr” value [8] of the same compound?
**A.** >12.5 µg/mL

**Q.** What about the “MIC B. dermatitidis V” value [8] of the same compound?
**A.** >12.5 µg/mL

**Q.** And the “MIC0 Ti” value [9]?
**A.** 0.79 µg/mL

**Q.** And the “MIC0 Mc” value [10]?
**A.** 2 µg/mL

**Q.** What about the “MIC0 Tm” value [11] of the same compound?
**A.** 4 µg/mL

**Q.** And the “MIC0 A. fumigatus ATCC 204305” value [12]?
**A.** 2.1 µg/mL

**Q.** What about the “MIC H. capsulatum G217B” value [13] of the same compound?
**A.** <0.19 µg/mL

**Q.** What about the “MIC H. capsulatum GS20” value [13] of the same compound?
**A.** <0.19 µg/mL

**Q.** And the “MIC0 Mg” value [14]?
**A.** 1.58 µg/mL

**Q.** For “(5S,6R)-5-(N-(4-imidazolyl)methyl-methylamino)-6-hydroxypolyangioic acid [I-h]”, which “MIC0 A. flavus ATCC 204304” value [2] is on record?
**A.** 1.0 µg/mL

**Q.** And the “MIC C. albicans 24433” value [3]?
**A.** >32 µg/mL

**Q.** And the “MIC C. albicans 90028” value [3]?
**A.** >32 µg/mL

**Q.** What about the “MIC S. apiospermum 94-54” value [4] of the same compound?
**A.** >16 µg/mL

**Q.** And the “MIC S. apiospermum 98-38” value [4]?
**A.** >16 µg/mL

**Q.** And the “MIC S. apiospermum 98-89” value [4]?
**A.** 0.125 to 0.25 µg/mL

**Q.** And the “MIC C. neoformans 97-14” value [5]?
**A.** 0.5 µg/mL

**Q.** What about the “MIC C. neoformans 11239” value [5] of the same compound?
**A.** 0.25 µg/mL

**Q.** And the “MIC C. neoformans 11240” value [5]?
**A.** 0.25 µg/mL

**Q.** And the “MIC F. solani 96-1” value [7]?
**A.** >16 µg/mL

**Q.** What about the “MIC0 A. fumigatus ATCC 204305” value [12] of the same compound?
**A.** 2.1 µg/mL
